Assay results as given in patent US9738634B2, “Heterocyclic amide compound and herbicide” (SYNGENTA PARTICIPATIONS AG, priority 2013, dated 2017).

Assays:
Assay type in all cases: in vivo
barnyard grass [1] = experiment: Test Example 1: weedkilling efficacy, preemergent weed treatment in the submerged state; A: barnyard grass; conditions: treatment dosage 252 g/ha
Method in brief: (§1)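 Pre-emergence paddy test: weed seeds sown in submerged alluvial soil (4 cm water), 2.5-leaf rice transplanted, water-diluted emulsion applied to water surface at sowing at stated g/ha. Scored at 3 weeks, greenhouse 25–30 °C.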

bulrush [2] = experiment: Test Example 1: weedkilling efficacy, preemergent weed treatment in the submerged state; B: bulrush; conditions: treatment dosage 252 g/ha
Method in brief: as §1

oval-leafed pondweed [3] = experiment: Test Example 1: weedkilling efficacy, preemergent weed treatment in the submerged state; C: oval-leafed pondweed; conditions: treatment dosage 252 g/ha
Method in brief: as §1

transplanted rice = experiment: Test Example 1: preemergent weed treatment in the submerged state, effect on crop; a: transplanted rice; conditions: treatment dosage 252 g/ha
Method in brief: as §1

barnyard grass [4] = experiment: Test Example 2: weedkilling efficacy, growth period weed treatment in the submerged state; A: barnyard grass; conditions: treatment dosage 252 g/ha
Method in brief: (§2)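 Seedlings at 1-2 leaves in 4 cm-deep submerged alluvial soil received emulsion formulations on the water surface, dosed per hectare; effects were judged 3 weeks on.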

bulrush [5] = experiment: Test Example 2: weedkilling efficacy, growth period weed treatment in the submerged state; B: bulrush; conditions: treatment dosage 252 g/ha
Method in brief: as §2

oval-leafed pondweed [6] = experiment: Test Example 2: weedkilling efficacy, growth period weed treatment in the submerged state; C: oval-leafed pondweed; conditions: treatment dosage 252 g/ha
Method in brief: as §2

crabgrass [7] = experiment: Test Example 3: weedkilling efficacy through soil treatment; D: crabgrass; conditions: treatment dosage 315 g/ha
Method in brief: (§3)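 Crop and weed responses were judged three weeks after a uniform surface spray of the water-diluted emulsion at the given g/ha rate. Seeds sat beneath about 1.5 cm of sterilized diluvial soil, and boxes stood in a greenhouse at 25 to 30° C.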

green foxtail [8] = experiment: Test Example 3: weedkilling efficacy through soil treatment; E: green foxtail; conditions: treatment dosage 315 g/ha
Method in brief: as §3

black-grass [9] = experiment: Test Example 3: weedkilling efficacy through soil treatment; H: black-grass; conditions: treatment dosage 315 g/ha
Method in brief: as §3

Italian ryegrass [10] = experiment: Test Example 3: weedkilling efficacy through soil treatment; I: Italian ryegrass; conditions: treatment dosage 315 g/ha
Method in brief: as §3

Indian mallow [11] = experiment: Test Example 3: weedkilling efficacy through soil treatment; K: Indian mallow; conditions: treatment dosage 315 g/ha
Method in brief: as §3

redroot pigweed [12] = experiment: Test Example 3: weedkilling efficacy through soil treatment; L: redroot pigweed; conditions: treatment dosage 315 g/ha
Method in brief: as §3

fig-leafed goosefoot [13] = experiment: Test Example 3: weedkilling efficacy through soil treatment; M: fig-leafed goosefoot; conditions: treatment dosage 315 g/ha
Method in brief: as §3

chickweed [14] = experiment: Test Example 3: weedkilling efficacy through soil treatment; N: chickweed; conditions: treatment dosage 315 g/ha
Method in brief: as §3

catchweed [15] = experiment: Test Example 3: weedkilling efficacy through soil treatment; O: catchweed; conditions: treatment dosage 315 g/ha
Description: Weedkilling Efficacy Test Through Soil Treatment
Sterilized diluvial soil was introduced into 21 cm long, 13 cm wide, 7 cm deep plastic boxes, and seeds of crabgrass, green foxtail, barnyard grass, wild oat, black-grass, Italian ryegrass, common wind-grass, Indian mallow, redroot pigweed, fig-leafed goosefoot, chickweed, catchweed, birds-eye speedwell, corn, soybean, rice, wheat, beet and rapeseed were each spot-sown, and covered with about 1.5 cm of soil. Next, emulsions of compounds of the present invention prepared according to compounding example 2 were diluted with water to give the specified dosages, and applied uniformly onto the soil surface with a small sprayer. The plants were grown by placing the plastic boxes in a greenhouse at 25 to 30° C., and 3 weeks after the pesticide treatment the effect on each type of plant was investigated on the basis of the assessment criteria of test example 1.
A: barnyard grass, B: bulrush, C: oval-leafed pondweed, D: crabgrass, E: green foxtail, F: barnyard grass, G: wild oat, H: black-grass, I: Italian ryegrass, J: common wind-grass, K: Indian mallow, L: redroot pigweed, M: fig-leafed goosefoot, N: chickweed, O: catchweed, p: birds-eye speedwell, a: transplanted rice, b: directly sown rice, c: corn, d: soybean, e: wheat, f: beet, g: rapeseed
Further, pesticide dosage (g/ha) indicates the concentration regulated such that treatment was with only the stated number of grams (g), when calculated per hectare (ha).

birds-eye speedwell [16] = experiment: Test Example 3: weedkilling efficacy through soil treatment; p: birds-eye speedwell; conditions: treatment dosage 315 g/ha
Method in brief: as §3

directly sown rice [17] = experiment: Test Example 3: soil treatment, effect on crop; b: directly sown rice; conditions: treatment dosage 315 g/ha
Method in brief: as §3

corn [18] = experiment: Test Example 3: soil treatment, effect on crop; c: corn; conditions: treatment dosage 315 g/ha
Method in brief: as §3

soybean [19] = experiment: Test Example 3: soil treatment, effect on crop; d: soybean; conditions: treatment dosage 315 g/ha
Method in brief: as §3

wheat [20] = experiment: Test Example 3: soil treatment, effect on crop; e: wheat; conditions: treatment dosage 315 g/ha
Method in brief: as §3

beet [21] = experiment: Test Example 3: soil treatment, effect on crop; f: beet; conditions: treatment dosage 315 g/ha
Method in brief: as §3

crabgrass [22] = experiment: Test Example 4: weedkilling efficacy by foliar treatment; D: crabgrass; conditions: treatment dosage 315 g/ha
Method in brief: (§4)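 Seeds are spot-sown into sterilized diluvial soil and covered with about 1.5 cm of soil. After 14 days' greenhouse growth at 25 to 30° C, plants are sprayed on stems and leaves with diluted emulsion at the stated g/ha rate, then scored at 3 weeks.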

green foxtail [23] = experiment: Test Example 4: weedkilling efficacy by foliar treatment; E: green foxtail; conditions: treatment dosage 315 g/ha
Method in brief: as §4

black-grass [24] = experiment: Test Example 4: weedkilling efficacy by foliar treatment; H: black-grass; conditions: treatment dosage 315 g/ha
Method in brief: as §4

Italian ryegrass [25] = experiment: Test Example 4: weedkilling efficacy by foliar treatment; I: Italian ryegrass; conditions: treatment dosage 315 g/ha
Method in brief: as §4

Indian mallow [26] = experiment: Test Example 4: weedkilling efficacy by foliar treatment; K: Indian mallow; conditions: treatment dosage 315 g/ha
Method in brief: as §4

redroot pigweed [27] = experiment: Test Example 4: weedkilling efficacy by foliar treatment; L: redroot pigweed; conditions: treatment dosage 315 g/ha
Method in brief: as §4

fig-leafed goosefoot [28] = experiment: Test Example 4: weedkilling efficacy by foliar treatment; M: fig-leafed goosefoot; conditions: treatment dosage 315 g/ha
Method in brief: as §4

chickweed [29] = experiment: Test Example 4: weedkilling efficacy by foliar treatment; N: chickweed; conditions: treatment dosage 315 g/ha
Method in brief: as §4

catchweed [30] = experiment: Test Example 4: weedkilling efficacy by foliar treatment; O: catchweed; conditions: treatment dosage 315 g/ha
Method in brief: as §4

birds-eye speedwell [31] = experiment: Test Example 4: weedkilling efficacy by foliar treatment; p: birds-eye speedwell; conditions: treatment dosage 315 g/ha
Method in brief: as §4

directly sown rice [32] = experiment: Test Example 4: foliar treatment, effect on crop; b: directly sown rice; conditions: treatment dosage 315 g/ha
Method in brief: as §4

corn [33] = experiment: Test Example 4: foliar treatment, effect on crop; c: corn; conditions: treatment dosage 315 g/ha
Method in brief: as §4

soybean [34] = experiment: Test Example 4: foliar treatment, effect on crop; d: soybean; conditions: treatment dosage 315 g/ha
Method in brief: as §4

wheat [35] = experiment: Test Example 4: foliar treatment, effect on crop; e: wheat; conditions: treatment dosage 315 g/ha
Method in brief: as §4

beet [36] = experiment: Test Example 4: foliar treatment, effect on crop; f: beet; conditions: treatment dosage 315 g/ha
Method in brief: as §4

CC1=C(c2ccc(Cl)s2)C(=O)N(C(C)(C)C(=O)Nc2cccc(Br)n2)CO1 [B-2-03]
A (barnyard grass) weedkilling efficacy grade (barnyard grass [1]): 5 (weed kill ratio 90% or more, (practically complete withering))
B (bulrush) weedkilling efficacy grade (bulrush [2]): 5 (weed kill ratio 90% or more, (practically complete withering))
C (oval-leafed pondweed) weedkilling efficacy grade (oval-leafed pondweed [3]): 5 (weed kill ratio 90% or more, (practically complete withering))
a (transplanted rice) effect on crop grade (transplanted rice): 0 (weed kill ratio 5% or less (practically no effect))
A (barnyard grass) weedkilling efficacy grade (barnyard grass [4]): 5 (weed kill ratio 90% or more, (practically complete withering))
B (bulrush) weedkilling efficacy grade (bulrush [5]): 5 (weed kill ratio 90% or more, (practically complete withering))
C (oval-leafed pondweed) weedkilling efficacy grade (oval-leafed pondweed [6]): 4 (weed kill ratio 70% or more, less than 90%)
D (crabgrass) weedkilling efficacy grade (crabgrass [7]): 3 (weed kill ratio 40% or more, less than 70%)
E (green foxtail) weedkilling efficacy grade (green foxtail [8]): 3 (weed kill ratio 40% or more, less than 70%)
H (black-grass) weedkilling efficacy grade (black-grass [9]): 5 (weed kill ratio 90% or more, (practically complete withering))
I (Italian ryegrass) weedkilling efficacy grade (Italian ryegrass [10]): 3 (weed kill ratio 40% or more, less than 70%)
K (Indian mallow) weedkilling efficacy grade (Indian mallow [11]): 0 (weed kill ratio 5% or less (practically no effect))
L (redroot pigweed) weedkilling efficacy grade (redroot pigweed [12]): 3 (weed kill ratio 40% or more, less than 70%)
M (fig-leafed goosefoot) weedkilling efficacy grade (fig-leafed goosefoot [13]): 0 (weed kill ratio 5% or less (practically no effect))
N (chickweed) weedkilling efficacy grade (chickweed [14]): 4 (weed kill ratio 70% or more, less than 90%)
O (catchweed) weedkilling efficacy grade (catchweed [15]): 0 (weed kill ratio 5% or less (practically no effect))
P (birds-eye speedwell) weedkilling efficacy grade (birds-eye speedwell [16]): 4 (weed kill ratio 70% or more, less than 90%)
b (directly sown rice) effect on crop grade (directly sown rice [17]): 1 (weed kill ratio 5% or more, less than 20%)
c (corn) effect on crop grade (corn [18]): 0 (weed kill ratio 5% or less (practically no effect))
d (soybean) effect on crop grade (soybean [19]): 0 (weed kill ratio 5% or less (practically no effect))
e (wheat) effect on crop grade (wheat [20]): 1 (weed kill ratio 5% or more, less than 20%)
f (beet) effect on crop grade (beet [21]): 0 (weed kill ratio 5% or less (practically no effect))
D (crabgrass) weedkilling efficacy grade (crabgrass [22]): 3 (weed kill ratio 40% or more, less than 70%)
E (green foxtail) weedkilling efficacy grade (green foxtail [23]): 1 (weed kill ratio 5% or more, less than 20%)
H (black-grass) weedkilling efficacy grade (black-grass [24]): 3 (weed kill ratio 40% or more, less than 70%)
I (Italian ryegrass) weedkilling efficacy grade (Italian ryegrass [25]): 3 (weed kill ratio 40% or more, less than 70%)
K (Indian mallow) weedkilling efficacy grade (Indian mallow [26]): 0 (weed kill ratio 5% or less (practically no effect))
L (redroot pigweed) weedkilling efficacy grade (redroot pigweed [27]): 1 (weed kill ratio 5% or more, less than 20%)
M (fig-leafed goosefoot) weedkilling efficacy grade (fig-leafed goosefoot [28]): 3 (weed kill ratio 40% or more, less than 70%)
N (chickweed) weedkilling efficacy grade (chickweed [29]): 0 (weed kill ratio 5% or less (practically no effect))
O (catchweed) weedkilling efficacy grade (catchweed [30]): 0 (weed kill ratio 5% or less (practically no effect))
P (birds-eye speedwell) weedkilling efficacy grade (birds-eye speedwell [31]): 2 (weed kill ratio 20% or more, less than 40%)
b (directly sown rice) effect on crop grade (directly sown rice [32]): 1 (weed kill ratio 5% or more, less than 20%)
c (corn) effect on crop grade (corn [33]): 0 (weed kill ratio 5% or less (practically no effect))
d (soybean) effect on crop grade (soybean [34]): 1 (weed kill ratio 5% or more, less than 20%)
e (wheat) effect on crop grade (wheat [35]): 0 (weed kill ratio 5% or less (practically no effect))
f (beet) effect on crop grade (beet [36]): 1 (weed kill ratio 5% or more, less than 20%)
